Experimental findings from a melting point compilation (Tetko et al.; mined from patent text by program, amines drawn as free bases though some values may be those of a salt) are described below.

A word on the melting point: it is the temperature, or range, at which the solid turns liquid.

Regarding `CCCCNC(=O)NC(=O)c1cc([N+](=O)[O-])cnc1C`, the melting point was 111 to 112 °C.

`CCOc1nn(-c2c(Cl)cc(Cl)cc2Cl)c(N2C(=O)c3ccccc3C2=O)c1C(=O)c1ccccc1Cl` came in with a melting point of 215 to 216 °C.

The compound `CCCCC[C@H](CC(=O)Nc1c(F)cc(F)cc1F)c1cccc2c1OCO2` came in with a melting point of 88 to 89 °C.

For `COc1ccc(C(=O)N(C)C2N(C)C(c3ccc(F)cc3)=NC2(C(F)(F)F)C(F)(F)F)cc1` (configuration not stated), the melting point lay in the range of 136 to 137 °C.

Compound `CC(C)c1cccc(C(C)C)c1NC(=O)CNC(c1ccccc1)c1cccs1` (configuration not stated) returned a melting point of 164 to 166 °C.

Compound `CCOC(=O)CN(CC(=O)OCC)C(=O)c1cc(OCCCCCCCCCCCCOc2ccccc2)ccc1OCc1ccccc1` had a melting point of 49 to 50 °C.

Compound `COn1nnc2ccc(Cn3ccnc3)cc21` showed a melting point of 132 °C.

In turn, `CCOC(=O)c1ccc(F)cn1` showed a melting point of 61 to 63 °C.

`Cc1nsc(-c2ccc(Cl)nn2)n1` gave a melting point of 180 °C.

Turning to `CC(C)Nc1cc(-c2nc[nH]n2)nc(Cl)c1-c1c(F)cccc1Cl`, the melting point was determined as 152 °C.

Turning to `O=C(O)C(=Cc1ccco1)SSC(=Cc1ccco1)C(=O)O`, the melting point was found to be 215 °C.

`CCNC(=O)c1cc2c(nc(C)n2C)c2c1CCC1(Cc3ccccc3C1)N2` returned a melting point of 223 to 224 °C.

For the compound `CC1(C)Oc2c(cc(Cl)c3oc(C(=O)O)cc(=O)c23)-c2ccc(S(=O)(=O)O)cc21`, the melting point was in the range of 257 to 259 °C.

Take `COc1cc(C)c2[nH]ccc2c1C(N)(c1nc2cc(C#N)ccc2[nH]1)C(F)(F)F` (single isomer, unassigned; (-)): the melting point came to 255 °C.

As to `CC(C)(C)c1cc(CCc2ccccc2NC(=O)NCC2(c3ccc4c(c3)OCO4)CCCC2)cc(C(C)(C)C)c1O`, the melting point lay in the range of 188 to 189 °C.

In turn, `CCOC(=O)CSC(=S)N1Cc2[nH]c3ccccc3c2CC1C(=O)O` (configuration not stated) returned a melting point of 190 to 192 °C.

`Cc1ccc2c(c1)/C(=N\NC(N)=O)C(=O)N2CCN(C(C)C)C(C)C`: the melting point fell in the range of 159 to 161 °C.

The compound `CC(C)OC(=O)c1cc(N2C(=O)C(C)C(C)N(C)C2=O)c(F)cc1Cl` (configuration not stated) came in with a melting point of 119 to 120 °C.

Turning to `Clc1nc(Nc2ccc(OCc3ccccc3)c(Cl)c2)nc(NC2CCCCCC2)n1`, the melting point came to 110 °C.

Regarding `NC(=O)CCCOc1ccc(C23CC4CC(CC(C4)C2)C3)cc1`, the melting point fell in the range of 176 to 177 °C.

Compound `Cc1ccc(Cl)c(C(N)=O)c1N` displayed a melting point of 149 to 152 °C.

Regarding `COC(=O)c1[nH]cnc1CCNC(=O)[C@H](Cc1ccccc1)NC(=O)[C@H](Cc1ccccc1)NC(=O)OC(C)(C)C`, the melting point lay in the range of 155 to 159 °C.

As to `CCON=C(CC)C1=C(O)CC(c2c(C)c([N+](=O)[O-])c(C)c([N+](=O)[O-])c2C)CC1=O` (configuration not stated), the melting point was 170 °C.

For the compound `O=C(Nc1nnc(SCc2ccccc2)s1)C1CC1`, the melting point was 182 to 184 °C.

`CCCC(CCC)C(=O)N[C@H](C(=O)N[C@H](CO)Cc1c[nH]c2ccccc12)[C@@H](C)CC` had a melting point of 190 to 191 °C.

`C=CCNc1ccc(N(CC=C)CC=C)cc1[N+](=O)[O-]` registered a melting point of 131 to 140 °C.

The compound `CC(C)(C)OC(=O)C=Cc1ccc2ccccc2c1` registered a melting point of 74 to 75 °C.

For the compound `CC(Cc1ccc(OCCNC(=O)c2ccc(-c3ccccn3)cc2)cc1)(Oc1ccccc1)C(=O)O` (configuration not stated), the melting point was 76 to 79 °C.

`CCCC1CCC(c2cc(F)c(C(F)(F)Oc3ccc(-c4cc(F)c(C(F)(F)F)c(F)c4)c(F)c3)c(F)c2)OC1` (configuration not stated): the melting point came out at 95 °C.

Compound `Nc1cc(N2CCCCC2)ccc1[N+](=O)[O-]` displayed a melting point of 100 to 101 °C.

`COc1ccc(C2=NN(CCCCCCCCBr)C(=O)[C@H]3CCCC[C@@H]23)cc1OC` (relative stereo) had a melting point of 58 to 60 °C.

`C=C(C)C(=O)NCCC(=O)Nc1cc(Cl)c(C)c(Cl)c1O` registered a melting point of 150 to 152 °C.

The compound `N#CC1=C(Nc2ccc(F)c(F)c2)CCC1` came in with a melting point of 126 to 128 °C.

`Cc1ccc(Oc2ccccc2-n2cc(C(=O)O)nn2)c(O)c1`: the melting point lay within 168 to 169 °C.

`COc1ccc(C(O)Cc2ccncc2)cc1OC1CCCC1` (configuration not stated) displayed a melting point of 97 to 101 °C.

On to `CC(=O)NC1CCN(CCC2CCOc3ccccc32)CC1` (configuration not stated), for which the melting point was in the range of 126 to 128 °C.

Compound `C=Cn1cc(C(=O)OCC)c(=O)c2cc(F)c(N3CCNCC3)cc21` displayed a melting point of 208 to 210 °C.

Take `COc1ccc(C(=O)c2cccc3c2ccn3S(=O)(=O)c2ccc(C)cc2)cc1`: the melting point is 135 °C.

For the compound `CCc1cccc(Nc2nc(OCC3CCCCC3)c3[nH]cnc3n2)c1`, the melting point was in the range of 180 to 183 °C.

As to `CC(=O)Oc1ccc(CCC2CC(C)(OC(C)=O)CC(=O)O2)cc1` (configuration not stated), the melting point lay in the range of 72 to 75 °C.

As for `COc1ccc(-c2nc3cnccc3[nH]2)c(OC(C)C)c1`, the melting point came to 220 °C.

`CN(C(=O)OC(C)(C)C)c1cc(Oc2ccc(-n3ccnc3)cc2)ccc1N` displayed a melting point of 115 to 116 °C.

In turn, `CCOC(=O)c1c(C(F)(F)F)nc(C(F)(F)F)c(C(=O)O)c1Cl` showed a melting point of 113 to 115 °C.

`COC(=O)Cc1cn(C(c2ccccc2)(c2ccccc2)c2ccccc2)cn1` returned a melting point of 122 to 125 °C.

Regarding `CCOC(=O)CSc1nnsc1-c1ccc(C(C)(C)C)cc1`, the melting point was in the range of 62.5 to 63.5 °C.

For the compound `CC(=O)NCc1ccc(C(C)Cl)cc1` (configuration not stated), the melting point was in the range of 58 to 62 °C.

`O=C(CBr)Nc1ccc(F)cc1C(=O)c1ccccc1Br` displayed a melting point of 110 to 114 °C.

As to `O=C(CCCN1CCCC(c2cccc(O)c2)C1)c1ccc(F)cc1` (configuration not stated), the melting point lay in the range of 77 to 78 °C.

Compound `O=C(N1CCC1)N1CC(Oc2cccc(C(F)(F)F)c2)C1` came in with a melting point of 65 to 68 °C.

The compound `CN(C)C=Cc1ncc([N+](=O)[O-])n1CCO` returned a melting point of 155 to 157 °C.

`CC(C)N1CCN(CCN2CCN(c3noc4cc(F)ccc34)CC2)C1=O` showed a melting point of 125 to 127 °C.

As to `CC(=O)NCCSc1ccnc(CSc2nc3ccccc3[nH]2)c1C`, the melting point is 211 to 213 °C.

For `CC(C)C(=O)c1c(-c2ccc(F)cc2)nn2cc(C(F)(F)F)ccc12`, the melting point lay within 129 to 130 °C.

In the case of `CCOc1cc2ncc(C#N)c(Nc3ccc4c(C)cc(=O)oc4c3)c2cc1OCC`, the melting point was in the range of 282 to 284 °C.

As for `Clc1ccc(C2(c3ccc4nccc(CCc5ccc(Cl)s5)c4c3)OCCO2)cc1`, the melting point was found to be 94 °C.

`COC(=O)NC1=NC(c2cccc(O)c2)CN1` (configuration not stated): the melting point is 180 to 183 °C.

Turning to `COc1ccc2[nH]c(SCc3nccc(N4CCCC4)n3)nc2c1`, the melting point was 199 to 202 °C.

Regarding `O=C(c1ccc([N+](=O)[O-])cc1)N1CCOCC1`, the melting point fell in the range of 90 to 91 °C.

As to `CN(CC1CCCCN1)C(=O)c1cc(OCC(F)(F)F)ccc1OCC(F)(F)F` (configuration not stated), the melting point fell in the range of 104 to 107 °C.

In turn, `CC(=O)N(C)c1cccc(-c2ccc(Cl)nn2)c1` showed a melting point of 118 to 120 °C.

Regarding `CCOC(=O)Nc1cc(-n2cc(C(=O)OCC)c(=O)c3c(OCc4ccccc4)c(F)c(F)cc32)c(F)cc1F`, the melting point lay in the range of 130 to 134 °C.

The compound `CC[C@H]1CNCC[C@H]1CCc1c[nH]c2ccccc12` yielded a melting point of 150 °C.
